Source: ChEMBL document CHEMBL3508693 (2016)

How the values were obtained:
[1] = Excretion of radioactivity (0-72h) in urine following single intravenous dose of 10 mg.Kg-1 [14C] aliskiren hemifumarate in mouse; format: ADME, organism-based, TgRasH2; details: in vivo
[2] = Excretion of radioactivity (24-48h) in faeces following single intravenous dose of 10 mg.Kg-1 [14C] aliskiren hemifumarate in rat; format: ADME, organism-based, Albino HAN:WIST, Feces; details: in vivo
[3] = Excretion of radioactivity (0-96h) in urine following single intravenous dose of 10 mg.Kg-1 [14C] aliskiren hemifumarate in rat; format: ADME, organism-based, Albino HAN:WIST; details: in vivo
[4] = Excretion of radioactivity (48-72h) in faeces following single oral dose of 100 mg.Kg-1 [14C] aliskiren hemifumarate in rat; format: ADME, organism-based, Albino HAN:WIST, Feces; details: in vivo
[5] = molecular target: T1, Cytochrome P450 2J2 (Homo sapiens, UniProt P51589); test: Metabolic clearance (ul.min.nmol-1 CYP) of aliskiren hemifumarate for CYP2J2 was determined in human liver microsome incubated with [14C]SPP100 hemifumarate; format: ADME; details: microsomes
T1 sequence (P51589 whole entry): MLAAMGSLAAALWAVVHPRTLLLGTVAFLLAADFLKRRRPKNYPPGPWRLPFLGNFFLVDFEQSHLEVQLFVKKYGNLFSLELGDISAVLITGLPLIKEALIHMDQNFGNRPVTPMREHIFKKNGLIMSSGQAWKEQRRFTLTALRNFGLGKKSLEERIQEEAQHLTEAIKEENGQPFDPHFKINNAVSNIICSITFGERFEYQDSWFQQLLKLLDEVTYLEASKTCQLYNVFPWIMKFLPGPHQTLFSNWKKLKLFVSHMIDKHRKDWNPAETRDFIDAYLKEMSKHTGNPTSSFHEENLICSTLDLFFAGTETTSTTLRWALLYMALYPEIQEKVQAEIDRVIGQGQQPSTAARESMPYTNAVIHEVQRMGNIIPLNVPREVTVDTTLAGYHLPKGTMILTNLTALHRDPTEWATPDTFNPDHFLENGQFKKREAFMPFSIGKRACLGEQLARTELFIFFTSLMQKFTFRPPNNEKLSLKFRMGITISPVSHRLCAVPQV

[6] = Concentration of radioactivity in the brown fat following repeated oral administration of [14C] aliskiren hemifumarate at 100 mg.Kg-1 level studied at 24h after 10th dose in rat; format: ADME, organism-based, Albino HAN:WIST, Brown adipose tissue; details: in vivo
[7] = Concentration of radioactivity in the liver following repeated oral administration of [14C] aliskiren hemifumarate at 100 mg.Kg-1 level studied at 24h after 3rd dose in rat; format: ADME, organism-based, Albino HAN:WIST; details: in vivo
[8] = molecular target: Cytochrome P450 3A4 (Homo sapiens, UniProt P08684); test: Activity of human recombinant CYP3A4 assessed as enzyme contribution (% total relative CL) towards [14C]SPP100 hemifumarate metabolism in human liver microsome; format: ADME; details: microsomes
Cytochrome P450 3A4, sequence (P08684 whole entry): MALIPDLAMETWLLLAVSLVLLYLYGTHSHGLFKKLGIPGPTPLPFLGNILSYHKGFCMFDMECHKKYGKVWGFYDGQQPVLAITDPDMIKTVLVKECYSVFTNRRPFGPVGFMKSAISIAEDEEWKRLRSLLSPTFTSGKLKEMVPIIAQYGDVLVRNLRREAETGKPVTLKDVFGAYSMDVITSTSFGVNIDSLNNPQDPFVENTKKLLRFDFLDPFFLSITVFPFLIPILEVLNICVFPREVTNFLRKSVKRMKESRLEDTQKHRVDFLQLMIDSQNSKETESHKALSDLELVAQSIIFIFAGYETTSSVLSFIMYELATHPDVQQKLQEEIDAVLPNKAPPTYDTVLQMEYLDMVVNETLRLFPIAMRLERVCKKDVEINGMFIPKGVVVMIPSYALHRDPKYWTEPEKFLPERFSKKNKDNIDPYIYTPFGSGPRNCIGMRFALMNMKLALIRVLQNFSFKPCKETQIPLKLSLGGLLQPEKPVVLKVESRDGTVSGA

[9] = Excretion of radioactivity (24-48h) in urine following single oral dose of 500 mg.Kg-1 [14C] aliskiren hemifumarate in mouse; format: ADME, organism-based, TgRasH2; details: in vivo
[10] = molecular target: CYP2C9 (Homo sapiens, UniProt P11712); test: Inhibitory activity of 20 uM SPP100 on 259 Pmoles of cDNA-derived CYP2C9 enzyme in microsome prepared from human lymphoblastoid cell line; format: ADME, microsomes; design: conc 20 uM, interact cpd conc 6 uM; details: probe diclofenac
CYP2C9, sequence (P11712 whole entry): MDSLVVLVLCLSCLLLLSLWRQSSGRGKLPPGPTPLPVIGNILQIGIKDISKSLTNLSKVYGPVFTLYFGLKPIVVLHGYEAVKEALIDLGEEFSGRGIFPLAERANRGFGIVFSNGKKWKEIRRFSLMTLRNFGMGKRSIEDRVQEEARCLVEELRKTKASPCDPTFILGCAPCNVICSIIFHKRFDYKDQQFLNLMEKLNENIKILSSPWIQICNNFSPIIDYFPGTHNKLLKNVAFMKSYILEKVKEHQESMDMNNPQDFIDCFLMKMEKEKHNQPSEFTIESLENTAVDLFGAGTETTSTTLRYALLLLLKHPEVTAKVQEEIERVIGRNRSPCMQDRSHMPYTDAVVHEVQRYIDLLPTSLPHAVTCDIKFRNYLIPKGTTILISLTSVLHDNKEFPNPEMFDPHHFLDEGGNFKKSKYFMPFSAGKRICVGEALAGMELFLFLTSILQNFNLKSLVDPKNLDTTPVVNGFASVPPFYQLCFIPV

[11] = Excretion (0-72h) of aliskiren in faeces following intravenous administration of [14C] aliskiren hemifumarate at 1 mg.Kg-1 level in marmoset; format: ADME, organism-based, Callithrix jacchus, Feces; details: in vivo
[12] = molecular target: CYP2D6 (Homo sapiens, UniProt P10635); test: Inhibitory activity of 200 µM SPP100 on cDNA-derived CYP2D6 enzyme in microsome prepared from human lymphoblastoid cell line; format: ADME, microsomes; design: conc 200 µM, interact cpd conc 10 uM; details: probe bufuralol (10 uM)
CYP2D6, sequence (P10635 whole entry): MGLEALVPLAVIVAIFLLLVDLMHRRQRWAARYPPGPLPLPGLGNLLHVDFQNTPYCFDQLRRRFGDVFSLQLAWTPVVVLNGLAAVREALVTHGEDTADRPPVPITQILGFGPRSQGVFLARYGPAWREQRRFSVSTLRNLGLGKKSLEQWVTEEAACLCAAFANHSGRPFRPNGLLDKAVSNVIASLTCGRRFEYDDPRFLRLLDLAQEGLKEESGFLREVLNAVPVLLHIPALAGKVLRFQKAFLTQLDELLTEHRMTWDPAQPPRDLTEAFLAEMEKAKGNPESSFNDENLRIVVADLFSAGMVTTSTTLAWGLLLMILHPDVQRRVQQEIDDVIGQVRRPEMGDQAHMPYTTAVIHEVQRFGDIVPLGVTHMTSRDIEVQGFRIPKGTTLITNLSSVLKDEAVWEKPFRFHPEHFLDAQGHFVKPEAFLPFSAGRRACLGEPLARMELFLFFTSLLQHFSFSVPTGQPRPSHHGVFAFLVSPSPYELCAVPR

[13] = molecular target: T2, CYP1A2 (Homo sapiens, UniProt P05177); test: Inhibitory activity of 20 uM SPP100 on 489 Pmoles of cDNA-derived CYP1A2 enzyme in microsome prepared from human lymphoblastoid cell line; format: ADME, microsomes; design: conc 20 uM, interact cpd conc 50 uM; details: probe phenacetin
T2 sequence (P05177 whole entry): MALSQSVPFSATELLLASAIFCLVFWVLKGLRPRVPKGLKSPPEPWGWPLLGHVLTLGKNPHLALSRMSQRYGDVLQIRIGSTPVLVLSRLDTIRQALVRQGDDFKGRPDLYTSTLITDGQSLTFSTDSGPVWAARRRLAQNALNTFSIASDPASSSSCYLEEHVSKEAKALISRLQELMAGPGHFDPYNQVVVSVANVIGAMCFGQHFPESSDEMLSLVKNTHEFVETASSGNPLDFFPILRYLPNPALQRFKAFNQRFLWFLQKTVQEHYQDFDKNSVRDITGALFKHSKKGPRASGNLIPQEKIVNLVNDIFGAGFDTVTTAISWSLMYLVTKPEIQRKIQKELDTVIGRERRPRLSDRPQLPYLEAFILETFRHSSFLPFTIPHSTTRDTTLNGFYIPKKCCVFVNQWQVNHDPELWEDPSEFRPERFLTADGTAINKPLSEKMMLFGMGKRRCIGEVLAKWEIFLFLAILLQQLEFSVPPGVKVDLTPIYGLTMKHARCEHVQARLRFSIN

[14] = AUCspec of aliskiren hemifumarate following 2 week oral dosing of aliskiren hemifumarate at 50 mg.Kg-1 level studied on day 14 in male Callithrix jacchus; format: ADME, organism-based, Plasma; details: marmoset, in vivo, 336 h
[15] = AUC (0-96h) of unlabeled aliskiren hemifumarate following intravenous administration of aliskiren hemifumarate at 10 mg.Kg-1 level in rat; format: ADME, organism-based; details: Albino HAN:WIST, plasma
[16] = Cmaxspec of aliskiren hemifumarate following 2 week oral dosing of aliskiren hemifumarate at 100 mg.Kg-1 level studied on day 1 in female Callithrix jacchus; format: ADME, organism-based, Plasma; details: marmoset, in vivo, 336 h
[17] = Tmax of aliskiren hemifumarate following 2 week oral dosing of aliskiren hemifumarate at 10 mg.Kg-1 level studied on day 14 in female Callithrix jacchus; format: ADME, organism-based; details: marmoset, plasma
[18] = Cmax (0-168h) of unlabeled aliskiren hemifumarate following single oral administration of aliskiren hemifumarate at 3 mg.Kg-1 level in marmoset; format: ADME, organism-based, Callithrix jacchus, Plasma; details: in vivo
[19] = Cmax/dose of aliskiren hemifumarate following 4 week oral dietary dosing of aliskiren hemifumarate at 2000 mg.Kg-1 level in male mouse; format: ADME, organism-based, CB6F1-TGrasH2; details: in vivo, 672 h
[20] = AUC (0-24h)/dose of aliskiren hemifumarate following 4 week oral dietary dosing of aliskiren hemifumarate at 2000 mg.Kg-1 level in male mouse; format: ADME, organism-based, CB6F1-TGrasH2, Plasma; details: in vivo
[21] = Cmax (0-168h) of unlabeled aliskiren hemifumarate following single intravenous administration of aliskiren hemifumarate at 1 mg.Kg-1 level in marmoset; format: ADME, organism-based, Callithrix jacchus; details: plasma
[22] = Cmax of aliskiren hemifumarate following 4 week oral dietary dosing of aliskiren hemifumarate at 1500 mg.Kg-1 level in male mouse; format: ADME, organism-based; details: CB6F1-TGrasH2, mouse, in vivo
[23] = AUC (0-24h) of aliskiren hemifumarate following 4 week oral dietary dosing of aliskiren hemifumarate at 500 mg.Kg-1 level in male mouse; format: ADME, organism-based; details: CB6F1-TGrasH2, mouse, plasma
[24] = Effect of 2 week oral dosing of aliskiren hemifumarate at 50 mg.Kg-1 level on plasma magnesium level in male Callithrix jacchus; format: toxicity, organism-based; details: marmoset, 336 h
[25] = Cmaxspec of aliskiren hemifumarate following 2 week oral dosing of aliskiren hemifumarate at 100 mg.Kg-1 level studied on day 14 in male Callithrix jacchus; format: ADME, organism-based, Plasma; details: marmoset, in vivo, 336 h
[26] = Blood clearance (0-168h) of unlabeled aliskiren hemifumarate following single intravenous administration of aliskiren hemifumarate at 1 mg.Kg-1 level in marmoset; format: ADME, organism-based, Callithrix jacchus; details: in vivo

COCCCOc1cc(C[C@@H](C[C@H](N)[C@@H](O)C[C@H](C(=O)NCC([14CH3])([14CH3])C(N)=O)C(C)C)C(C)C)ccc1OC.O=C(O)/C=C/C(=O)O
Radiolabel recovery [1]: 87.94% | Radiolabel recovery [2]: 28.2% | Radiolabel recovery [3]: 94.4% | Radiolabel recovery [4]: 0.36% | CL [5]: 10.6 µL·min/nmol | Radiolabel recovery [6]: OUTCOME = Detected | Radiolabel recovery [7]: OUTCOME = Detected | Activity [8]: 99.6% | Radiolabel recovery [9]: 1.02%

COCCCOc1cc(C[C@@H](C[C@H](N)[C@@H](O)C[C@H](C(=O)NCC(C)(C)C(N)=O)C(C)C)C(C)C)ccc1OC
inhibition at 20 µM [10]: 0.9% | Compound recovery [11]: 36% | inhibition at 200 uM [12]: 37% | inhibition at 20 µM [13]: 5%

COCCCOc1cc(C[C@@H](C[C@H](N)[C@@H](O)C[C@H](C(=O)NCC(C)(C)C(N)=O)C(C)C)C(C)C)ccc1OC.COCCCOc1cc(C[C@@H](C[C@H](N)[C@@H](O)C[C@H](C(=O)NCC(C)(C)C(N)=O)C(C)C)C(C)C)ccc1OC.O=C(O)/C=C/C(=O)O [ALISKIREN FUMARATE]
AUC normalised [14]: 2.14 ((ug.h.ml-1)/(mg/kg) | AUC(0-t) at 96 h [15]: 12.6 µM·h | Cmax normalised [16]: 0.079 (ug/ml)/(mg/kg) | Tmax [17]: 1 h | Cmax [18]: 0.395 µM | Cmax normalised [19]: 0.22 (ng/mL)/(mg/kg/day) | AUC normalised [20]: 3.86 ((ng/mL).hours)/(mg/kg/day) | Cmax [21]: 14.2 µM | Cmax [22]: 363 ng/mL | AUC(0-t) at 24 h [23]: 1700 ng·h/mL | Plasma magnesium_CHANGE_BY [24]: 130% | Cmax normalised [25]: 0.097 (ug/ml)/(mg/kg) | Blood clearance [26]: 0.055 L·h/kg
